# Measured values as given in ChEMBL document CHEMBL5634091, “Cantharidin analogue alleviates dextran sulfate sodium-induced colitis in mice by inhibiting the activation of NF-κB signaling” (Eur J Med Chem, 2023).
# pIC50: −log10 of the molar value. Active and inactive are the calls of the source. The calls are words filed in the database; no cut-off is given here.
# Columns and labels:
# RAW264.7 [1] = test: Antiinflammatory activity in mouse RAW264.7 cells assessed as inhibition in LPS/IFNgamma-induced NO production preincubated for 2 hrs followed by LPS/IFNgamma stimulation and measured after 24 hrs by Griess reagent based assay; format: functional, cell-based
# [2] = Cytotoxicity against LPS/IFNgamma induced mouse RAW264.7 cells assessed as inhibition of cell growth preincubated for 24 hrs followed by LPS/IFNgamma stimulation and measured after 24 hrs by SRB assay; format: toxicity, cell-based; conditions: RAW264.7 cells induced with LPS/IFNgamma, time 48 hrs
# [3] = Selectivity index, ratio of CC50 for cytotoxicity against LPS/IFNgamma induced mouse RAW264.7 cells to IC50 for antiinflammatory activity in mouse RAW264.7 cells assessed as inhibition in LPS/IFNgamma-induced NO production; format: toxicity, cell-based; conditions: RAW264.7 cells induced with LPS/IFNgamma, read-out: Ratio IC50
# [4] = Inhibition of TNF-alpha induced NF-kappaB activation in HEK293T cells preincubated for 4 hrs and followed by TNF-alpha stimulation and measured after 4 hrs by dual-luciferase reporter assay; format: cell-based; conditions: Homo sapiens, HEK-293T
# [5] = Cytotoxicity against TNF-alpha induced HEK293T cells assessed as inhibition of cell growth preincubated for 24 hrs followed by TNFalpha stimulation and measured after 4 hrs by SRB assay; format: toxicity, cell-based, HEK-293T; conditions: human, HEK293T cells induced with TNF-alpha; time 28 hrs
# [6] = Selectivity index, ratio of CC50 for cytotoxicity against TNF-alpha induced HEK293T cells to IC50 for inhibition of TNF-alpha induced NF-kappaB activation in HEK293T cells; format: toxicity, cell-based; conditions: human, HEK293T cells induced with TNF-alpha; read-out: Ratio IC50
# [7] = Toxicity in Kunming mouse assessed as increase in body weight at 40 mg/kg, po measured for 15 days (reference value: 12.38%); format: organism-based; conditions: in vivo, 360 h, time 15 day
# [8] = Toxicity in po dosed Kunming mouse assessed as maximum tolerated dose; format: organism-based; conditions: in vivo
# Mus musculus [9] = organism: Mus musculus; test: Anti-inflammatory activity in C57BL/6 mouse model of DSS-induced acute ulcerative colitis; format: functional, organism-based
# [10] = Toxicity in Kunming mouse assessed as number of mouse survived at 82 mg/kg, po measured for 15 days; format: organism-based; conditions: in vivo, 360 h, time 15 day
# [11] = Toxicity in Kunming mouse assessed as number of mouse survived at 40 mg/kg, po measured for 15 days; format: organism-based; conditions: in vivo, 360 h, time 15 day
# [12] = Toxicity in Kunming mouse assessed as number of mouse survived at 57 mg/kg, po measured for 15 days; format: organism-based; conditions: in vivo, 360 h, time 15 day
# [13] = Toxicity in Kunming mouse assessed as number of mouse survived at 117 mg/kg, po measured for 15 days; format: organism-based; conditions: in vivo, 360 h, time 15 day
# [14] = Toxicity in Kunming mouse assessed as effect on kidney by measuring systemic edema at 117 mg/kg, po measured for 15 days; format: organism-based; conditions: in vivo, 360 h, time 15 day
# RAW264.7 [15] = test: Antiinflammatory activity in mouse RAW264.7 cells assessed as inhibition in LPS/IFNgamma-induced NO production at 200 uM preincubated for 2 hrs followed by LPS/IFNgamma stimulation and measured after 24 hrs by Griess reagent based assay relative to control; format: functional; conditions: time 26 hrs
# Mus musculus [16] = test: Anti-inflammatory activity in C57BL/6 mouse model of DSS-induced acute ulcerative colitis assessed as reduction in ulcerations at 100 to 300 mg/kg, po administered once a day for 7 days by H and E staining based analysis; format: functional, organism-based; conditions: dose 100-300 mg/kg, time 7.0 day
# Mus musculus [17] = test: Anti-inflammatory activity in C57BL/6 mouse model of DSS-induced acute ulcerative colitis assessed as reduction in p65 expression in colon at 50 mg/kg, po administered once a day for 7 days by immunohistochemical analysis; format: functional, organism-based; conditions: time 7.0 day
# [18] = Toxicity in Kunming mouse assessed as increase in body weight at 42 mg/kg, po measured for 15 days (reference value: 12.38%); format: organism-based; conditions: in vivo, 360 h, time 15 day
# [19] = Toxicity in Kunming mouse assessed as number of mouse survived at 42 mg/kg, po measured for 15 days; format: organism-based; conditions: in vivo, 360 h, time 15 day
# [20] = Toxicity in Kunming mouse assessed as number of mouse survived at 53 mg/kg, po measured for 15 days; format: organism-based; conditions: in vivo, 360 h, time 15 day
# [21] = Toxicity in Kunming mouse assessed as number of mouse survived at 66 mg/kg, po measured for 15 days; format: organism-based; conditions: in vivo, 360 h, time 15 day
Compound,pIC50 (RAW264.7 [1]),CC50 at 24 h [2] [µM],selectivity ratio [3],pIC50 [4],CC50 at 4 h [5] [µM],selectivity ratio [6],also measured
CCOC(=O)C1=C(C(=O)OCC)C2C=CC1O2,5.41,20.4,5.28,4.47,59.9,1.77,Activity [7]: 2.31%; MTD [8]: 57 mg/kg; Activity (Mus musculus [9]): inactive; Activity [10]: 1; Activity [11]: 0; Activity [12]: 0; Activity [13]: 3; Activity [14]: Toxic
COC(=O)C1=C(C(=O)OC)C2OC1CC2C#Cc1ccc(Cl)cc1 (centres undefined),5.45,5.23,1.48,4.92,20.9,1.74,–
COC(=O)C1=C(C(=O)OC)C2OC1CC2C#Cc1cc(OC)cc(OC)c1 (centres undefined),5.43,5.06,1.37,5.20,34.4,5.45,–
Brc1cc2c(cc1Br)C1C=CC2O1,< 3.70,> 200,–,4.14,194,2.7,inhibition at 200 µM (RAW264.7 [15]): ~30%
COC(=O)C1=C(C(=O)OC)C2OC1CC2C#Cc1ccccc1OC (centres undefined),5.42,5.46,1.45,5.00,30.7,3.09,Activity (Mus musculus [16]): Active
Nc1ccc(O)c(C(=O)O)c1,–,–,–,–,–,–,Activity (Mus musculus [17]): inactive
C[C@@]12C(=O)OC(=O)[C@]1(C)[C@H]1CC[C@@H]2O1 [CANTHARIDIN],4.99,3.88,0.38,–,–,–,–
COc1ccc(C#CC2CC3OC2c2cc(Br)c(Br)cc23)cc1 (centres undefined),3.73,198,1.07,4.40,140,4.26,–
COC(=O)C1=C(C(=O)OC)C2OC1CC2C#Cc1ccccc1 (centres undefined),5.43,5.69,1.53,4.71,62.1,3.21,–
COC(=O)C1=C(C(=O)OC)C2OC1CC2C#Cc1ccc(Br)cc1 (centres undefined),5.46,5.06,1.46,5.35,21.7,4.9,–
COc1ccc(C#CC2CC3OC2c2c(OC)ccc(OC)c23)cc1 (centres undefined),3.72,200,1.05,3.86,199,1.45,–
COc1ccc(OC)c2c1C1C=CC2O1,< 3.70,> 200,–,4.61,118,4.79,inhibition at 200 µM (RAW264.7 [15]): ~30%
COc1ccc(C#CC2CC3OC2c2ccccc23)cc1 (centres undefined),3.79,191,1.19,3.80,181,1.15,–
C1=CC2OC1c1ccccc12,< 3.70,> 200,–,4.71,111,5.65,inhibition at 200 µM (RAW264.7 [15]): ~30%
CCOC(=O)C1=C(C(=O)OCC)C2OC1CC2C#Cc1ccc(OC)cc1 (centres undefined),5.29,18.9,3.73,4.92,52.8,4.34,–
CC(C)(C)OC(=O)C1=C(C(=O)OC(C)(C)C)C2C=CC1O2,5.43,12.8,3.46,4.38,80.3,1.91,–
COC(=O)C1=C(C(=O)OC)C2OC1CC2C#Cc1ccc(F)cc1 (centres undefined),5.43,6.25,1.67,5.25,26.5,4.75,–
COC(=O)C1=C(C(=O)OC)C2C=CC1O2,5.39,12.8,3.1,4.02,99.9,1.04,Activity [7]: 10.6%; MTD [8]: 40 mg/kg; Activity (Mus musculus [9]): inactive; Activity [10]: 1; Activity [11]: 0; Activity [12]: 1; Activity [13]: 3; Activity [14]: Toxic
C[C@@H]1C[C@H]2[C@@H]3CCC4=CC(=O)C=C[C@]4(C)[C@@]3(F)[C@@H](O)C[C@]2(C)[C@@]1(O)C(=O)CO [DEXAMETHASONE],–,–,–,4.91,> 200,> 16.4,–
CSC(=N)N,4.90,> 200,> 15.8,–,–,–,–
COc1ccc(C#CC2CC3OC2c2cc(OC)c(OC)cc23)cc1 (centres undefined),3.73,184,0.99,3.88,198,1.48,–
COc1cc2c(cc1OC)C1C=CC2O1,< 3.70,> 200,–,4.70,114,5.72,inhibition at 200 µM (RAW264.7 [15]): ~30%
COC(=O)C1=C(C(=O)OC)C2OC1CC2C#Cc1ccc(OC)cc1 (centres undefined),5.74,7.51,4.15,4.60,22.4,0.9,–
O=C1OC(=O)C2C3CCC(O3)C12 (centres undefined) [DEMETHYL-CANTHARIDIN],4.00,78.1,0.79,3.98,> 200,> 1.91,Activity [18]: 15.62%; MTD [8]: 53 mg/kg; Activity (Mus musculus [9]): inactive; Activity [19]: 0; Activity [20]: 0; Activity [21]: 1; Activity [10]: 3
